Assay results reported in patent US20250276964A1 (Novartis AG, priority 2021, published 2025).

Molecular target: T1, WIZ (Homo sapiens, UniProt O95785+Q96SW2)
T1 construct: expressed in transfected cells
Assay: Quantification of WIZ protein levels in HiBit tag fusion protein assay (WIZ HiBit assay in 293T cells)
Format: cell-based
Details: for Dmax at 25 µM / remaining activity at 25 µM: HEK-293T; for Dmax at 25 µM / % degradation of WIZ (100-Amax): 100 minus Amax at 25 uM; for Dmax at 25 µM: read-out: % degradation of WIZ (100-Amax); for remaining activity at 25 µM / WIZ Amax: DMSO-normalized, curve-fitted percentage of WIZ-HiBit remaining at 25 uM; for remaining activity at 25 µM: read-out: WIZ Amax; for DC50: WIZ HiBit assay in 293T cells, 10-point, 5-fold dilution, highest concentration 25 μM, about 18 hours, read-out: WIZ AC50
Method in brief: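 293T cells stably carrying single-copy HiBit-WIZ (HSVTK promoter) treated ~18 h at 37 °C with 10-point, 5-fold dilutions, top 25 μM. Lytic HiBit luminescence read; Amax is DMSO-normalised, curve-fitted % WIZ-HiBit remaining at 25 uM.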

T1 sequence (O95785 whole entry): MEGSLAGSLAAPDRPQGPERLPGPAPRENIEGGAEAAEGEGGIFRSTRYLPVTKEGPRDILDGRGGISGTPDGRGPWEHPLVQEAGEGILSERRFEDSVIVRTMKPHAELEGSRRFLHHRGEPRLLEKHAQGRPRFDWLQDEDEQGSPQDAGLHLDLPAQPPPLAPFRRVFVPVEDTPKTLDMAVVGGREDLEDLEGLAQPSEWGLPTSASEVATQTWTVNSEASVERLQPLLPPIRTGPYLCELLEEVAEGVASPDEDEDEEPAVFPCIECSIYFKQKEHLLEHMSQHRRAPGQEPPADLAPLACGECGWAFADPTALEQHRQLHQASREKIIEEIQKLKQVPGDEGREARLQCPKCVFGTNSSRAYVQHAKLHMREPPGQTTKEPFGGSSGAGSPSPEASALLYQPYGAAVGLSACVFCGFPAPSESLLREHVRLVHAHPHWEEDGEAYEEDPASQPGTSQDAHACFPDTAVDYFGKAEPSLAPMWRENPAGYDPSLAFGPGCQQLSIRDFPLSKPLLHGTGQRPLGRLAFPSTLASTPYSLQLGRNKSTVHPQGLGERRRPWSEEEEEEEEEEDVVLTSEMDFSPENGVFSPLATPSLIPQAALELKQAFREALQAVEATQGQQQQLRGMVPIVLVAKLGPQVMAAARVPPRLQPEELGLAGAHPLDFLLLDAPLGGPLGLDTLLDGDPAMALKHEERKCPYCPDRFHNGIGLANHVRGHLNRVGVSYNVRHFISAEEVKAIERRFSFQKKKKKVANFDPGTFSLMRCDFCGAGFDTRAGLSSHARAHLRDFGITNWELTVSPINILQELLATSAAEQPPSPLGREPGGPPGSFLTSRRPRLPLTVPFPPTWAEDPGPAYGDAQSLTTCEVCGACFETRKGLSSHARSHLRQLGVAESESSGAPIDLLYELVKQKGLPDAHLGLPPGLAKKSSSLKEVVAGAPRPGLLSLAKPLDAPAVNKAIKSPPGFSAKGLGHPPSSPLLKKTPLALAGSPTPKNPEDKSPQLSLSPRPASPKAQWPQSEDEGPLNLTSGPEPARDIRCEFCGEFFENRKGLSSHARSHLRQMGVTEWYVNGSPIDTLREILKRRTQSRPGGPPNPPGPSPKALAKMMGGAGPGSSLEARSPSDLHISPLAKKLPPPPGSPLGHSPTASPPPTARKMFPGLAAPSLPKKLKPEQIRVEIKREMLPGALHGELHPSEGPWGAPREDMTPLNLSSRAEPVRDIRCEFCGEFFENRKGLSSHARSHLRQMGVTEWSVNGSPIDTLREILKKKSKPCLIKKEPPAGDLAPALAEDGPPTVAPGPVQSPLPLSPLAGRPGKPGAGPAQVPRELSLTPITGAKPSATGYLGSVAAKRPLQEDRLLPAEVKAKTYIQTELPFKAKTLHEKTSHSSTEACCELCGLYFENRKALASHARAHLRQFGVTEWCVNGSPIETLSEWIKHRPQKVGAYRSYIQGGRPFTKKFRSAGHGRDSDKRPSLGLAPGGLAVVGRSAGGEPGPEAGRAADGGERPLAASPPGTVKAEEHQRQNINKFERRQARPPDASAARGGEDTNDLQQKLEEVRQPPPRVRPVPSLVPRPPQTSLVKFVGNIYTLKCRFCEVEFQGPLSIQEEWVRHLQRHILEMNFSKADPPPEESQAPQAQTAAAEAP
T1 sequence (Q96SW2 whole entry): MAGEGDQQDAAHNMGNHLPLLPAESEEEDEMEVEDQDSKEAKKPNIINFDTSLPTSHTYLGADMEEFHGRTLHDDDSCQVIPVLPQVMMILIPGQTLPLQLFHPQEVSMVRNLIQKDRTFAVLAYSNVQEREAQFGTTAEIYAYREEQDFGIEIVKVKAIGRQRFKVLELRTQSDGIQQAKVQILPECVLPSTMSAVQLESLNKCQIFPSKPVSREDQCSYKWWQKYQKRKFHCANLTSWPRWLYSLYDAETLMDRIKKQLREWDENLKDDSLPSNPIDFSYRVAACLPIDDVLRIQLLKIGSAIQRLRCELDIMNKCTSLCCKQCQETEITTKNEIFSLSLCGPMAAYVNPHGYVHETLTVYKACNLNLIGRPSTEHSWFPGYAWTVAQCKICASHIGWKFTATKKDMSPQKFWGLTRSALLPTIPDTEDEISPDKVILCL
T1 sequence (Q16531 whole entry partner): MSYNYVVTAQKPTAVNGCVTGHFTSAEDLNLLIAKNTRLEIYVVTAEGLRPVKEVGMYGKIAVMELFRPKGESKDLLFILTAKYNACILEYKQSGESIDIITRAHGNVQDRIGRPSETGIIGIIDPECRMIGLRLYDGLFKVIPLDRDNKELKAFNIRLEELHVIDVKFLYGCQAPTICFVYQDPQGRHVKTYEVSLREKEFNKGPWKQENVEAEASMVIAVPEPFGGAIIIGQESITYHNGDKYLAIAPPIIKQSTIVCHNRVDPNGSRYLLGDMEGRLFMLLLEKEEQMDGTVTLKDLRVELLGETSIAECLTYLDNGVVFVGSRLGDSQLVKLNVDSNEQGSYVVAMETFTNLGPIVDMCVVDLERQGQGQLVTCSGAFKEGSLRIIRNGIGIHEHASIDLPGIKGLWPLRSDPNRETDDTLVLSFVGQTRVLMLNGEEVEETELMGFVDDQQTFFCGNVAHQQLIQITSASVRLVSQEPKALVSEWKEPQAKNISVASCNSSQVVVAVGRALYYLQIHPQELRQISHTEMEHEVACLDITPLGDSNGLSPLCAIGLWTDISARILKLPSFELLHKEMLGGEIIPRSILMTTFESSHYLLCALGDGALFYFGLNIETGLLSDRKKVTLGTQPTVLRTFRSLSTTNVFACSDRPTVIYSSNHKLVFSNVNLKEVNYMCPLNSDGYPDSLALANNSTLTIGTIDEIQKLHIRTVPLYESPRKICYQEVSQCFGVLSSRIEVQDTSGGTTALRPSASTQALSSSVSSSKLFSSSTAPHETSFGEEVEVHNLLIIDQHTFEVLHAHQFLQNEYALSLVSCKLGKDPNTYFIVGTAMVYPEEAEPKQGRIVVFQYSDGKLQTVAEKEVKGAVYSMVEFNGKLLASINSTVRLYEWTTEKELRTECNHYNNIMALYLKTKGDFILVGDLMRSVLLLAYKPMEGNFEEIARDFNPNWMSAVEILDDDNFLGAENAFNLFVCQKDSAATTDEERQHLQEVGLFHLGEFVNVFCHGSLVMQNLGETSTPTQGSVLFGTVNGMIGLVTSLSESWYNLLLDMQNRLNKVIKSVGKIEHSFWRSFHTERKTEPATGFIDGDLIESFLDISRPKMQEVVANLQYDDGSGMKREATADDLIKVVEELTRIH

Row | Structure (SMILES) | Dmax at 25 µM [%] | remaining activity at 25 µM [%] | DC50 [nM] | % degradation of WIZ (100-Amax) [%] | WIZ Amax [%]
1 | C[C@H]1CN(CC2CCOCC2)[C@@H](C)CN1Cc1ccc2onc(N3CCC(=O)NC3=O)c2c1 [Example 107, 1-(5-(((2S,5S)-2,5-dimethyl-4-((tetrahydro-2H-pyran-4-yl)methyl)piperazin-1-yl)methyl)benzo[d]isoxazol-3-yl)dihydropyrimidine-2,4(1H,3H)-dione] | 86 | 14 | 56 |  | 
2 | C[C@@H]1CN(CC2COC2)CCN1Cc1ccc2onc(N3CCC(=O)NC3=O)c2c1 [Example 68, (R)-1-(5-((2-methyl-4-(oxetan-3-ylmethyl)piperazin-1-yl)methyl)benzo[d]isoxazol-3-yl)dihydropyrimidine-2,4(1H,3H)-dione] | 83 | 17 | 40 |  | 
3 | CN1[C@@H]2CC[C@H]1CC(Cc1ccc3onc(N4CCC(=O)NC4=O)c3c1)C2 (stereo partly drawn) [Example 59, 1-(5-(((1R,5S)-8-methyl-8-azabicyclo[3.2.1]octan-3-yl)methyl)benzo[d]isoxazol-3-yl)dihydropyrimidine-2,4(1H,3H)-dione] |  |  | 25 | 84 | 16
4 | C[C@@H]1CN(C2CC2)CCN1Cc1ccc2onc(N3CCC(=O)NC3=O)c2c1 [Example 120, (R)-1-(5-((4-cyclopropyl-2-methylpiperazin-1-yl)methyl)benzo[d]isoxazol-3-yl)dihydropyrimidine-2,4(1H,3H)-dione] | 83 | 17 | 538 |  | 
5 | C[C@@H]1CN(C(=O)NC2CCCC2)CCN1Cc1ccc2onc(N3CCC(=O)NC3=O)c2c1 [Example 76, (R)—N-cyclopentyl-4-((3-(2,4-dioxotetrahydropyrimidin-1(2H)-yl)benzo[d]isoxazol-5-yl)methyl)-3-methylpiperazine-1-carboxamide] | 78 | 22 | 115 |  | 
6 | CS(=O)(=O)N1[C@@H]2CC[C@H]1CC(Cc1ccc3onc(N4CCC(=O)NC4=O)c3c1)C2 (stereo partly drawn) [Example 60, 1-(5-(((1R,5S)-8-(methylsulfonyl)-8-azabicyclo[3.2.1]octan-3-yl)methyl)benzo[d]isoxazol-3-yl)dihydropyrimidine-2,4(1H,3H)-dione] | 90 | 10 | 9 |  | 
7 | CC(C)(C)OC(=O)N1C[C@@H]2C[C@H]1CN2Cc1ccc2onc(N3CCC(=O)NC3=O)c2c1 [Example 93, tert-butyl (1S,4S)-5-((3-(2,4-dioxotetrahydropyrimidin-1(2H)-yl)benzo[d]isoxazol-5-yl)methyl)-2,5-diazabicyclo[2.2.1]heptane-2-carboxylate] | 61 | 39 | 2180 |  | 
8 | CC(C)S(=O)(=O)N1CCN(Cc2ccc3onc(N4CCC(=O)NC4=O)c3c2)CC1 [Example 84, 1-(5-((4-(isopropylsulfonyl)piperazin-1-yl)methyl)benzo[d]isoxazol-3-yl)dihydropyrimidine-2,4(1H,3H)-dione] | 82 | 18 | 145 |  | 
9 | O=C1CCN(c2noc3ccc(CN4C[C@H]5CC[C@@H](C4)N5)cc23)C(=O)N1 [Example 100, 1-(5-(((1R,5S)-3,8-diazabicyclo[3.2.1]octan-3-yl)methyl)benzo[d]isoxazol-3-yl)dihydropyrimidine-2,4(1H,3H)-dione] | 76 | 24 | 34 |  | 
10 | C[C@H]1CN(Cc2ccc3onc(N4CCC(=O)NC4=O)c3c2)CCN1C1COC1 [Example 82, (S)-1-(5-((3-methyl-4-(oxetan-3-yl)piperazin-1-yl)methyl)benzo[d]isoxazol-3-yl)dihydropyrimidine-2,4(1H,3H)-dione] | 95 | 5 | 77 |  | 
11 | CS(=O)(=O)N1CC2CCC1CN2Cc1ccc2onc(N3CCC(=O)NC3=O)c2c1 (single isomer, unassigned) [Example 125, 1-(5-((5-(methylsulfonyl)-2,5-diazabicyclo[2.2.2]octan-2-yl)methyl)benzo[d]isoxazol-3-yl)dihydropyrimidine-2,4(1H,3H)-dione] | 85 | 15 | 120 |  | 
12 | CC(C)C(=O)N1CCN(Cc2ccc3onc(N4CCC(=O)NC4=O)c3c2)CC1 [Example 85, 1-(5-((4-isobutyrylpiperazin-1-yl)methyl)benzo[d]isoxazol-3-yl)dihydropyrimidine-2,4(1H,3H)-dione] | 82 | 18 | 218 |  | 
13 | CN1C[C@H]2C[C@@H]1CN2Cc1ccc2onc(N3CCC(=O)NC3=O)c2c1 [Example 97] | 84 | 16 | 192 |  | 
14 | CN1CCN(Cc2ccc3onc(N4CCC(=O)NC4=O)c3c2)CC1(C)C [Example 92, 1-(5-((3,3,4-trimethylpiperazin-1-yl)methyl)benzo[d]isoxazol-3-yl)dihydropyrimidine-2,4(1H,3H)-dione] | 82 | 18 | 4 |  | 
15 | CN1CC2CCC1CN2Cc1ccc2onc(N3CCC(=O)NC3=O)c2c1 (single isomer, unassigned) [Example 124, 1-(5-((5-methyl-2,5-diazabicyclo[2.2.2]octan-2-yl)methyl)benzo[d]isoxazol-3-yl)dihydropyrimidine-2,4(1H,3H)-dione] |  |  | 520 | 85 | 15
16 | CC(C)(C)OC(=O)N1C[C@H]2C[C@@H]1CN2Cc1ccc2onc(N3CCC(=O)NC3=O)c2c1 [Example 96, tert-butyl (1R,4R)-5-((3-(2,4-dioxotetrahydropyrimidin-1(2H)-yl)benzo[d]isoxazol-5-yl)methyl)-2,5-diazabicyclo[2.2.1]heptane-2-carboxylate] | 66 | 34 | 1090 |  | 
17 | CCN1CCN(Cc2ccc3onc(N4CCC(=O)NC4=O)c3c2)[C@H](C)C1 [Example 66, (R)-1-(5-((4-ethyl-2-methylpiperazin-1-yl)methyl)benzo[d]isoxazol-3-yl)dihydropyrimidine-2,4(1H,3H)-dione] | 86 | 14 | 45 |  | 

Second part, led by results:

Row | Dmax at 25 µM [%] | remaining activity at 25 µM [%] | DC50 [nM] | Structure (SMILES) | % degradation of WIZ (100-Amax) [%] | WIZ Amax [%]
18 | 92 | 8 | 10 | O=C1CCN(c2noc3ccc(CC4CCN(CC5CCC5)CC4)cc23)C(=O)N1 [Example 3, 1-(5-((1-(cyclobutylmethyl)piperidin-4-yl)methyl)benzo[d]isoxazol-3-yl)dihydropyrimidine-2,4(1H,3H)-dione] |  | 
19 | 86 | 14 | 189 | O=C1CCN(c2noc3ccc(CN4CCN(C5CC5)CC4)cc23)C(=O)N1 [Example 119, 1-(5-((4-cyclopropylpiperazin-1-yl)methyl)benzo[d]isoxazol-3-yl)dihydropyrimidine-2,4(1H,3H)-dione] |  | 
20 | 86 | 14 | 190 | O=C1CCN(c2noc3ccc(CN4CCN(Cc5cccnc5)CC4)cc23)C(=O)N1 [Example 26, 1-(5-((4-(pyridin-3-ylmethyl)piperazin-1-yl)methyl)benzo[d]isoxazol-3-yl)dihydropyrimidine-2,4(1H,3H)-dione] |  | 
21 | 90 | 10 | 19 | O=C1CCN(c2noc3ccc(CN4CCN(CC5CCCCC5)CC4)cc23)C(=O)N1 [Example 21, 1-(5-((4-(cyclohexylmethyl)piperazin-1-yl)methyl)benzo[d]isoxazol-3-yl)dihydropyrimidine-2,4(1H,3H)-dione] |  | 
22 | 85 | 15 | 160 | CC(C)(C)OC(=O)N1CCC(Cc2ccc3onc(N4CCC(=O)NC4=O)c3c2)CC1 [Example 1a, tert-butyl 4-((3-(2,4-dioxotetrahydropyrimidin-1(2H)-yl)benzo[d]isoxazol-5-yl)methyl)piperidine-1-carboxylate] |  | 
23 | 91 | 9 | 56 | O=C1CCN(c2noc3ccc(CC4CCN(Cc5ccccc5)CC4)cc23)C(=O)N1 [Example 9, 1-(5-((1-benzylpiperidin-4-yl)methyl)benzo[d]isoxazol-3-yl)dihydropyrimidine-2,4(1H,3H)-dione] |  | 
24 | 87 | 13 | 279 | O=C1CCN(c2noc3ccc(CC4CCN(CC5CCCCC5)C4)cc23)C(=O)N1 (stereo not drawn) [Example 49, 1-(5-((1-(cyclohexylmethyl)pyrrolidin-3-yl)methyl)benzo[d]isoxazol-3-yl)dihydropyrimidine-2,4(1H,3H)-dione] |  | 
25 | 90 | 10 | 45 | CN1CCC(Cc2ccc3onc(N4CCC(=O)NC4=O)c3c2)CC1 [Example 10, 1-(5-((1-methylpiperidin-4-yl)methyl)benzo[d]isoxazol-3-yl)dihydropyrimidine-2,4(1H,3H)-dione] |  | 
26 | 86 | 14 | 210 | O=C1CCN(c2noc3ccc(CN4CCN(Cc5cccc(F)c5)CC4)cc23)C(=O)N1 [Example 27, 1-(5-((4-(3-fluorobenzyl)piperazin-1-yl)methyl)benzo[d]isoxazol-3-yl)dihydropyrimidine-2,4(1H,3H)-dione] |  | 
27 | 90 | 10 | 11 | O=C1CCN(c2noc3ccc(CC4CCN(CCC5CCCCC5)CC4)cc23)C(=O)N1 [Example 11, 1-(5-((1-(2-cyclohexylethyl)piperidin-4-yl)methyl)benzo[d]isoxazol-3-yl)dihydropyrimidine-2,4(1H,3H)-dione] |  | 
